Measurements published in patent publication US4235996A, “Bis(2-imida zolin-2-ylhydrazone)-9,10-dihydro-9,10-anthracenedicarboxaldehydes” (American Cyanamid Company, priority 1978, dated 1980).
Values after ≈ are worked out from the molar mass of the structure shown. Values joined by “and” are separate entries in the source; they are usually repeats but may differ in a detail not shown here. Equal values may be shown once. Where a name gives a salt, the structure may show the parent alone.

Key:
Enterococcus SM 77-15 = test: Antibacterial spectrum, agar-dilution streak-plate technique; type: cell-based; conditions: SM7715, 37° C., 18 hours, read-out: Minimal Inhibitory Concentration
Protocol: (§1) The antibacterial spectrum, in terms of the concentration required to inhibit the growth of various typical bacteria, was determined in a standard manner by the agar-dilution streak-plate technique. A Steers multiple inocula replicator was used with incubation at 37° C. for 18 hours in Mueller-Ninton agar. The results for typical compounds of this invention are set forth in Table III below as the minimal inhibitory concentration in micrograms per milliliter.

[1] = test system: Staphylococcus aureus St. Paul (NYC 78-1); test: as above; type: cell-based; conditions: 37° C., 18 hours, read-out: Minimal Inhibitory Concentration
Protocol: as §1

[2] = test system: Staphylococcus aureus Q 74-11; test: as above; type: cell-based; conditions: 37° C.; for MIC: Staphylococcus aureus, Q7411, 18 h, read-out: Minimal Inhibitory Concentration
Protocol: as §1

[3] = test system: Staphylococcus aureus OSU 75-2; test: as above; type: cell-based; conditions: OSU752, 37° C., 18 hours, read-out: Minimal Inhibitory Concentration
Protocol: as §1

melanotic melanoma B16 = test: Melanotic Melanoma B16 test (survival of transplanted mice); type: in vivo, C57BC/6 mice
Protocol: The animals used are C57BC/6 mice, all of the same sex, weighing a minimum of 17 g. and all within a 3 g. weight range. There are normally 10 animals per test group. A one-gram portion of melanotic melanoma B16 tumor is homogenized in 10 ml. of cold balanced salt solution and a 0.5 ml. aliquot of the homogenate is implanted intraperitoneally into each of the test mice. The test compounds are administered intraperitoneally on days one through 9 (relative to tumor inoculation) at various doses. The animals are weighed and survivors are recorded on a regular basis for 60 days. The median survival time and the ratio of survival time for treated (T)/control (C) animals are calculated. The positive control compound is 5-fluorouracil given as a 20 mg./kg. injection. The results of this test with representative compounds of the present invention appear in Table II below. The criterion for efficacy is T/C×100≥125%.

[4] = test system: lymphocytic leukemia P388; test: Lymphocytic leukemia P388 test (survival of transplanted mice); type: in vivo
Protocol: Lymphocytic leukemia P388 test
The animals used are mice, all of one sex, weighing a minimum of 18 g. and all within a 3 gram weight range. There are 5 or 6 animals per test group. The tumor transplant is by intraperitoneal injection of 0.1 ml. or 0.5 ml. of dilute ascitic fluid containing 10^6 cells of lymphocytic leukemia p388. The test compounds are administered intraperitoneally on days one, 5 and 9 (relative to tumor inoculation) at various doses. The animals are weighed and survivors are recorded on a regular basis for 60 days. The median survival time and the ratio of survival time for treated (T)/control (C) animals are calculated. The positive control compound is 5-fluorouracil given as an intraperitoneal injection on days one, 5 and 9. […] The criterion for efficacy is T/C×100≥125%.

[5] = 3 mg./kg., i.p. days one through 9
[6] = 3 mg./kg., i.p. days one through 9, efficacy criterion ≥125%
[7] = 6 mg./kg., i.p. days one through 9
[8] = 6 mg./kg., i.p. days one through 9, efficacy criterion ≥125%
[9] = 12 mg./kg., i.p. days one through 9
[10] = 12 mg./kg., i.p. days one through 9, efficacy criterion ≥125%
[11] = 3.12 mg./kg., i.p. days 1, 5 and 9
[12] = 3.12 mg./kg., i.p. days 1, 5 and 9, efficacy criterion ≥125%
[13] = 6.25 mg./kg., i.p. days 1, 5 and 9
[14] = 6.25 mg./kg., i.p. days 1, 5 and 9, efficacy criterion ≥125%
[15] = 12.5 mg./kg., i.p. days 1, 5 and 9
[16] = 12.5 mg./kg., i.p. days 1, 5 and 9, efficacy criterion ≥125%
[17] = 25 mg./kg., i.p. days 1, 5 and 9
[18] = 25 mg./kg., i.p. days 1, 5 and 9, efficacy criterion ≥125%
[19] = 50 mg./kg., i.p. days 1, 5 and 9
[20] = 50 mg./kg., i.p. days 1, 5 and 9, efficacy criterion ≥125%
[21] = 1.5 mg./kg., i.p. days one through 9
[22] = 1.5 mg./kg., i.p. days one through 9, efficacy criterion ≥125%
[23] = 20 mg./kg. injection (positive control)
[24] = 40 mg./kg., i.p. days 1, 5 and 9 (positive control)
[25] = 60 mg./kg., i.p. days 1, 5 and 9 (positive control)

Row | SMILES | Median Survival (melanotic melanoma B16; [5]) [days] | T/C × 100 (melanotic melanoma B16; [6]) [%] | Median Survival (melanotic melanoma B16; [7]) [days] | T/C × 100 (melanotic melanoma B16; [8]) [%] | Median Survival (melanotic melanoma B16; [9]) [days] | T/C × 100 (melanotic melanoma B16; [10]) [%] | Median Survival [4, 11] [days] | T/C × 100 [4, 12] [%] | Median Survival [4, 13] [days] | T/C × 100 [4, 14] [%] | Median Survival [4, 15] [days] | T/C × 100 [4, 16] [%] | Median Survival [4, 17] [days] | T/C × 100 [4, 18] [%] | Median Survival [4, 19] [days] | T/C × 100 [4, 20] [%] | further results
1 | COc1ccc(OC)c2c1C(C=NNC1=NCCN1)c1ccccc1C2C=NNC1=NCCN1 (centres unmarked) [1,4-Dimethoxy-bis-(2-imidazolin-2-ylhydrazone)-9,10-dihydro-9,10-anthracenedicarboxaldehyde] | – | – | – | – | – | – | – | – | – | – | – | – | – | – | – | – | MIC (Enterococcus SM 77-15): 256 µg/mL (≈ 556 µM); MIC [1]: 128 µg/mL (≈ 278 µM); MIC [2]: 64 µg/mL (≈ 139 µM); MIC [3]: 128 µg/mL (≈ 278 µM)
2 | Clc1cccc2c1C(C=NNC1=NCCN1)c1ccccc1C2C=NNC1=NCCN1 (centres unmarked) [1-Chloro-bis(2-imidazolin-2-ylhydrazone)-9,10-dihydro-9,10-anthracenedicarboxaldehyde dihydrochloride] | 22.0 | 129 | 25.5 | 150 | 31.0 | 182 | 15.5 | 163 | 16.5 | 174 | 19.5 | 205 | 21.0 | 221 | – | – | –
3 | Clc1ccc2c(c1)C(C=NNC1=NCCN1)c1ccccc1C2C=NNC1=NCCN1 (centres unmarked) [2-Chloro-bis(2-imidazolin-2-ylhydrazone)-9,10-dihydro-9,10-anthracenedicarboxaldehyde dihydrochloride] | – | – | – | – | – | – | 17.5 | 175 | 18.5 | 185 | 18.0 | 180 | 18.0 | 180 | 20.0 | 200 | –
4 | Cc1ccc2c(c1)C(C=NNC1=NCCN1)c1ccccc1C2C=NNC1=NCCN1 (centres unmarked) [2-Methyl-bis(2-imidazolin-2-ylhydrazone)-9,10-dihydro-9,10-anthracenedicarboxaldehyde dihydrochloride] | 25.0 | 147 | 28.0 | 165 | 33.5 | 197 | 13.5 | 142 | 14.5 | 153 | 16.0 | 168 | 16.0 | 168 | 19.0 | 200 | Median Survival (melanotic melanoma B16; [21]): 24.0 days; T/C × 100 (melanotic melanoma B16; [22]): 141%
5 | O=c1[nH]cc(F)c(=O)[nH]1 [5-Fluorouracil, reference compound] | – | – | – | – | – | – | – | – | – | – | – | – | – | – | – | – | Median Survival (melanotic melanoma B16; [23]): 30 days and 28.5 days; T/C × 100 (melanotic melanoma B16; [23]): 187% and 168%; Median Survival [4, 24]: 19.0 days and 18 days; T/C × 100 [4, 24]: 181% and 164%; Median Survival [4, 25]: 15.0 days and 18.5 days; T/C × 100 [4, 25]: 158% and 185%; T/C × 100 ([4]; mouse, in vivo, ip): 158
6 | C(=NNC1=NCCN1)C1c2ccccc2C(C=NNC2=NCCN2)c2ccccc21 (centres unmarked) [Bis(2-imidazolin-2-ylhydrazone)-9,10-dihydro-9,10-anthracenedicarboxaldehyde dihydrochloride] | 22.0 | 138 | 25.0 | 156 | 32.0 | 200 | – | – | – | 129 | – | 152 | – | – | – | – | Median Survival (melanotic melanoma B16; [21]): 21.0 days; T/C × 100 (melanotic melanoma B16; [22]): 131%; Median Survival ([4]; 6.25 mg./kg., i.p. days 1, 5 and 9, dihydrochloride): 13 days; Median Survival ([4]; 12.5 mg./kg., i.p. days 1, 5 and 9, dihydrochloride): 16 days
7 | C(=NNC1=NCCN1)C1c2ccccc2C(C=NNC2=NCCN2)c2ccccc21 (centres unmarked) [Bis(2-imidazolin-2-ylhydrazone)-9,10-dihydro-9,10-anthracenedicarboxaldehyde] | – | – | – | – | – | – | 14 | 127 | 16.5 | 150 | 16.5 | 150 | 17.5 | 159 | 20 | 182 | MIC (Enterococcus SM 77-15): 16 µg/mL (≈ 40 µM); MIC [1]: 64 µg/mL (≈ 160 µM); MIC [2]: 32 µg/mL (≈ 79.9 µM); MIC [3]: 128 µg/mL (≈ 320 µM); Median Survival ([4]; 100 mg./kg., i.p. days 1, 5 and 9): 19.5 days; T/C × 100 ([4]; 100 mg./kg., i.p. days 1, 5 and 9, efficacy criterion ≥125%): 177%; Median Survival ([4]; 200 mg./kg., i.p. days 1, 5 and 9): 23 days; Median Survival ([4]; 400 mg./kg., i.p. days 1, 5 and 9): 25 days; T/C × 100 ([4]; 400 mg./kg., i.p. days 1, 5 and 9, efficacy criterion ≥125%): 227%; T/C × 100 ([4]; mouse, in vivo, ip): 209
8 | COc1ccc(OC)c2c1C(C=NNC1=NCCN1)c1ccccc1C2C=NNC1=NCCN1 (centres unmarked) [Bis-(2-imidazolin-2-ylhydrazone)-1,4-dimethoxy-9,10-dihydro-9,10-anthracenedicarboxaldehyde dihydrochloride] | – | – | – | – | – | – | – | – | – | – | – | – | – | – | – | – | Minimal Inhibitory Concentration ([2]; 18 hours, dihydrochloride): 128 µg/mL
